This is an account of results in patent publication US20240317780A1, “RADIOPHARMACEUTICAL SOMATOSTATIN RECEPTOR LIGANDS AND PRECURSORS THEREOF” (Technische Universität München, priority 2021, published 2024).

Where a SMILES comes first, the peptide text is derived from it. Bridges are numbered along the chain shown (N, C = ends). [ ]: non-standard residue; d: D form. The star is where a group is joined. ξ: configuration not given here. X1 = CC(C)(C)[Si](F)(c1ccc(C[N+](C)(C)CC(=O)*)cc1)C(C)(C)C; DO3AM = NC(=O)CN1CCN(CC(N)=O)CCN(CC(=O)*)CCN(CC(N)=O)CC1; ξW = NC(Cc1c[nH]c2ccccc12)C(=O)O; dOrn = NCCC[C@@H](N)C(=O)O; ξF = NC(Cc1ccccc1)C(=O)O; ξT = CC(O)C(N)C(=O)O; ξDap = NCC(N)C(=O)O; ξC = NC(CS)C(=O)O

The target of this assay is T1, SST2 (Homo sapiens, UniProt P30874).
T1 construct: expressed in transfected cells; host or cells: CHO (Chinese hamster ovary) cells
Briefly: Determination of IC50: competitive binding against [125I]TOC on SST2-transfected CHO cells. Conditions: [125I]TOC reference radioligand, 60 min room temperature. The procedure: The SST2-transfected CHO cells were cultivated in Dulbecco's Modified Eagle Medium/Nutrient Mixture F-12 (DMEM/F-12) with Glutamax-I (1:1) (Gibco), supplemented with 10% fetal calf serum (FCS) and maintained at 37° C. in a humidified 5% CO2 atmosphere. […] After removal of the culture medium, the cells were treated once with 300 μL of HBSS-B (Hank's balanced salt solution, Biochrom, Berlin, Germany, with addition of 1% bovine serum albumin (BSA)) and left with 200 μL HBSS-B. Next, 25 μL per well of solutions, containing either HBSS-B (control) or the respective ligand in increasing concentration (10^−10-10^−4 M in HBSS-B, were added with subsequent addition of 25 μL of
[^125I]TOC ([^125I]Tyr^3-Octreotide) (1.0 nM) in HBSS-B. Each concentration is investigated in triplicate. After 60 min incubation at room temperature, the experiment was terminated by removal of the assay medium and consecutive rinsing with 300 μL of cold PBS. The media of both steps were combined in one fraction and represent the amount of unbound radioligand.
Afterwards, the cells were lysed with 300 μL of 1 M NaOH and united with the 300 μL 1 M NaOH of the following wash step. Quantification of bound and unbound radioligand was accomplished in a γ-counter.

T1 sequence (P30874 whole entry, species assumed): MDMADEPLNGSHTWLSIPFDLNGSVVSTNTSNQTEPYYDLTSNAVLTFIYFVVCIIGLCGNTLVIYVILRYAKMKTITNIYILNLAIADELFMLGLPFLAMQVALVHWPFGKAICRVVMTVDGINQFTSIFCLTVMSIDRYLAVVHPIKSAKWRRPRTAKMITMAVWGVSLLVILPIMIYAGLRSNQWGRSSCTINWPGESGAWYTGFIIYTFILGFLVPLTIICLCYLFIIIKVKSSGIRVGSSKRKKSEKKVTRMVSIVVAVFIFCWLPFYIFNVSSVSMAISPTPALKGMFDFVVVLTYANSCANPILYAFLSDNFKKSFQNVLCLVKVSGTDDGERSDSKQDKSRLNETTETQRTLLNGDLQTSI

In turn, `C[C@@H](O)[C@H](NC(=O)C1CSSCC(NC(=O)C(Cc2ccccc2)NC(=O)CNC(=O)CNC(=O)CNC(=O)C(CC(=O)O)NC(=O)[C@@H](CC(=O)O)NC(=O)C(CCC(=O)O)NC(=O)[C@@H](CNC(=O)C[N+](C)(C)Cc2ccc([Si](F)(C(C)(C)C)C(C)(C)C)cc2)NC(=O)CN2CCN(CC(=O)O)CCN(CC(=O)O)CCN(CC(=O)O)CC2)C(=O)N[C@@H](Cc2ccc(O)cc2)C(=O)NC(Cc2c[nH]c3ccccc23)C(=O)N[C@@H](CCCCN)C(=O)N[C@@H]([C@@H](C)O)C(=O)N1)C(=O)O` (stereo partly drawn) (natGa complex, metal not drawn) [[Ga]47] registered an IC50 of 7.58 ± 0.58 nM. Then `C[C@@H](O)[C@H](NC(=O)C1CSSCC(NC(=O)C(Cc2ccccc2)NC(=O)CNC(=O)CNC(=O)CNC(=O)C(CC(=O)O)NC(=O)[C@@H](CC(=O)O)NC(=O)C(CNC(=O)CN2CCN(CC(=O)O)CCN(CC(=O)O)CCN(CC(=O)O)CC2)NC(=O)[C@@H](CN)NC(=O)C[N+](C)(C)Cc2ccc([Si](F)(C(C)(C)C)C(C)(C)C)cc2)C(=O)N[C@@H](Cc2ccc(O)cc2)C(=O)NC(Cc2c[nH]c3ccccc23)C(=O)N[C@@H](CCCCN)C(=O)N[C@@H]([C@@H](C)O)C(=O)N1)C(=O)O` (stereo partly drawn) (natGa complex, metal not drawn) [[Ga]51], with 3.56 ± 0.25 nM. `C[C@@H](O)[C@H](NC(=O)C1CSSCC(NC(=O)C(Cc2ccccc2)NC(=O)CNC(=O)CNC(=O)CNC(=O)C(CC(=O)O)NC(=O)[C@@H](CC(=O)O)NC(=O)C(CNC(=O)CN2CCN(CC(=O)O)CCN(CC(=O)O)CCN(CC(=O)O)CC2)NC(=O)[C@@H](CN)NC(=O)CNC(=O)CNC(=O)C[N+](C)(C)Cc2ccc([Si](F)(C(C)(C)C)C(C)(C)C)cc2)C(=O)N[C@@H](Cc2ccc(O)cc2)C(=O)NC(Cc2c[nH]c3ccccc23)C(=O)N[C@@H](CCCCN)C(=O)N[C@@H]([C@@H](C)O)C(=O)N1)C(=O)O` (stereo partly drawn) (natLu complex, metal not drawn) [[Lu]53]: the IC50 came to 3.36 ± 0.27 nM.

`C[C@@H](O)[C@H](NC(=O)C1CSSCC(NC(=O)C(Cc2ccccc2)NC(=O)CNC(=O)CNC(=O)CNC(=O)C(CC(=O)O)NC(=O)[C@@H](CC(=O)O)NC(=O)C(CCCCN)NC(=O)[C@@H](CNC(=O)C[N+](C)(C)Cc2ccc([Si](F)(C(C)(C)C)C(C)(C)C)cc2)NC(=O)CN2CCN(CC(=O)O)CCN(CC(=O)O)CCN(CC(=O)O)CC2)C(=O)N[C@@H](Cc2ccc(O)cc2)C(=O)NC(Cc2c[nH]c3ccccc23)C(=O)N[C@@H](CCCCN)C(=O)N[C@@H]([C@@H](C)O)C(=O)N1)C(=O)O` (stereo partly drawn) (natLu complex, metal not drawn) [[Lu]45] gave a half-maximal inhibitory concentration (IC50) of 3.37 ± 0.35 nM.

In turn, `C[C@@H](O)[C@H](NC(=O)C1CSSCC(NC(=O)C(Cc2ccccc2)NC(=O)CNC(=O)CNC(=O)[C@@H](CC(=O)O)NC(=O)C(CC(=O)O)NC(=O)[C@@H](CNC(=O)CC[C@H](C(=O)O)N2CCN(CC(=O)O)CCN(CC(=O)O)CCN(CC(=O)O)CC2)NC(=O)C(CN)NC(=O)c2ccc([Si](F)(C(C)(C)C)C(C)(C)C)cc2)C(=O)N[C@@H](Cc2ccc(O)cc2)C(=O)NC(Cc2c[nH]c3ccccc23)C(=O)N[C@@H](CCCCN)C(=O)N[C@@H]([C@@H](C)O)C(=O)N1)C(=O)O` (stereo partly drawn) (natLu complex, metal not drawn) [[Lu]20] had a half-inhibitory concentration (IC50) of 11 ± 5.69 nM. `CC(O)C(NC(=O)C1CSSCC(NC(=O)C(Cc2ccccc2)NC(=O)CNC(=O)CNC(=O)CNC(=O)[C@@H](CCCN)NC(=O)[C@@H](CCCN)NC(=O)C(CNC(=O)CN2CCN(CC(N)=O)CCN(CC(N)=O)CCN(CC(N)=O)CC2)NC(=O)C[N+](C)(C)Cc2ccc([Si](F)(C(C)(C)C)C(C)(C)C)cc2)C(=O)N[C@@H](Cc2ccc(O)cc2)C(=O)NC(Cc2c[nH]c3ccccc23)C(=O)N[C@@H](CCCCN)C(=O)N[C@@H]([C@@H](C)O)C(=O)N1)C(=O)O` (stereo partly drawn) [[Pb]61] (X1-[ξDap](DO3AM)[dOrn][dOrn]GGG[ξF][ξC]Y[ξW]KT[ξC][ξT]-OH; disulfide 8-13) returned an IC50 of 7.96 ± 0.28 nM. Then `C[C@@H](O)[C@H](NC(=O)C1CSSCC(NC(=O)C(Cc2ccccc2)NC(=O)CNC(=O)CNC(=O)CNC(=O)C(CC(=O)O)NC(=O)[C@@H](CC(=O)O)NC(=O)C(CCC(=O)O)NC(=O)[C@@H](CNC(=O)C[N+](C)(C)Cc2ccc([Si](F)(C(C)(C)C)C(C)(C)C)cc2)NC(=O)CN2CCN(CC(=O)O)CCN(CC(=O)O)CCN(CC(=O)O)CC2)C(=O)N[C@@H](Cc2ccc(O)cc2)C(=O)NC(Cc2c[nH]c3ccccc23)C(=O)N[C@@H](CCCCN)C(=O)N[C@@H]([C@@H](C)O)C(=O)N1)C(=O)O` (stereo partly drawn) (natLu complex, metal not drawn) [[Lu]47], with 5.13 ± 0.51 nM; and `C[C@@H](O)[C@H](NC(=O)C1CSSCC(NC(=O)C(Cc2ccccc2)NC(=O)CNC(=O)CNC(=O)CNC(=O)C(CC(=O)O)NC(=O)[C@@H](CC(=O)O)NC(=O)C(CNC(=O)C[N+](C)(C)Cc2ccc([Si](F)(C(C)(C)C)C(C)(C)C)cc2)NC(=O)CN2CCN(CC(=O)O)CCN(CC(=O)O)CCN(CC(=O)O)CC2)C(=O)N[C@@H](Cc2ccc(O)cc2)C(=O)NC(Cc2c[nH]c3ccccc23)C(=O)N[C@@H](CCCCN)C(=O)N[C@@H]([C@@H](C)O)C(=O)N1)C(=O)O` (stereo partly drawn) (natGa complex, metal not drawn) [[Ga]44], with 5.45 ± 0.5 nM. The figure for `C[C@@H](O)[C@H](NC(=O)C1CSSCC(NC(=O)C(Cc2ccccc2)NC(=O)CNC(=O)CNC(=O)CNC(=O)C(CC(=O)O)NC(=O)[C@@H](CC(=O)O)NC(=O)C(CNC(=O)CN2CCN(CC(=O)O)CCN(CC(=O)O)CCN(CC(=O)O)CC2)NC(=O)[C@@H](CN)NC(=O)C[N+](C)(C)Cc2ccc([Si](F)(C(C)(C)C)C(C)(C)C)cc2)C(=O)N[C@@H](Cc2ccc(O)cc2)C(=O)NC(Cc2c[nH]c3ccccc23)C(=O)N[C@@H](CCCCN)C(=O)N[C@@H]([C@@H](C)O)C(=O)N1)C(=O)O` (stereo partly drawn) (natLu complex, metal not drawn) [[Lu]51] is 3.09 ± 0.16 nM.

Molecule `C[C@@H](O)[C@H](NC(=O)C1CSSCC(NC(=O)C(Cc2ccccc2)NC(=O)CNC(=O)CNC(=O)[C@@H](CC(=O)O)NC(=O)C(CC(=O)O)NC(=O)[C@@H](CNC(=O)CN2CCN(CC(=O)O)CCN(CC(=O)O)CCN(CC(=O)O)CC2)NC(=O)C[N+](C)(C)Cc2ccc([Si](F)(C(C)(C)C)C(C)(C)C)cc2)C(=O)N[C@@H](Cc2ccc(O)cc2)C(=O)NC(Cc2c[nH]c3ccccc23)C(=O)N[C@@H](CCCCN)C(=O)N[C@@H]([C@@H](C)O)C(=O)N1)C(=O)O` (stereo partly drawn) (natLu complex, metal not drawn) [[Lu]24] came in with an IC50 of 5.5 ± 0.76 nM.

Consider `C[C@@H](O)[C@H](NC(=O)C1CSSCC(NC(=O)C(Cc2ccccc2)NC(=O)CNC(=O)CNC(=O)[C@@H](CC(=O)O)NC(=O)C(CC(=O)O)NC(=O)[C@@H](CNC(=O)CN2CCN(CC(=O)O)CCN(CC(=O)O)CCN(CC(=O)O)CC2)NC(=O)C(CN)NC(=O)c2ccc([Si](F)(C(C)(C)C)C(C)(C)C)cc2)C(=O)N[C@@H](Cc2ccc(O)cc2)C(=O)NC(Cc2c[nH]c3ccccc23)C(=O)N[C@@H](CCCCN)C(=O)N[C@@H]([C@@H](C)O)C(=O)N1)C(=O)O` (stereo partly drawn) (natLu complex, metal not drawn) [[Lu]19], for which the IC50 was found to be 13.3 ± 1.97 nM. Then `C[C@@H](O)[C@H](NC(=O)C1CSSCC(NC(=O)C(Cc2ccccc2)NC(=O)CNC(=O)CNC(=O)[C@@H](CC(=O)O)NC(=O)C(CC(=O)O)NC(=O)[C@@H](CNC(=O)CC[C@H](C(=O)O)N2CCN(CC(=O)O)CCN(CC(=O)O)CCN(CC(=O)O)CC2)NC(=O)C(CN)NC(=O)c2ccc([Si](F)(C(C)(C)C)C(C)(C)C)cc2)C(=O)N[C@@H](Cc2ccc(O)cc2)C(=O)NC(Cc2c[nH]c3ccccc23)C(=O)N[C@@H](CCCCN)C(=O)N[C@@H]([C@@H](C)O)C(=O)N1)C(=O)O` (stereo partly drawn) (natGa complex, metal not drawn) [[Ga]20], with 12.7 ± 1 nM.

Consider `C[C@@H](O)[C@H](NC(=O)C1CSSCC(NC(=O)C(Cc2ccccc2)NC(=O)CNC(=O)CNC(=O)CNC(=O)C(CC(=O)O)NC(=O)[C@@H](CC(=O)O)NC(=O)C(CCCNC(N)=O)NC(=O)[C@@H](CNC(=O)C[N+](C)(C)Cc2ccc([Si](F)(C(C)(C)C)C(C)(C)C)cc2)NC(=O)CN2CCN(CC(=O)O)CCN(CC(=O)O)CCN(CC(=O)O)CC2)C(=O)N[C@@H](Cc2ccc(O)cc2)C(=O)NC(Cc2c[nH]c3ccccc23)C(=O)N[C@@H](CCCCN)C(=O)N[C@@H]([C@@H](C)O)C(=O)N1)C(=O)O` (stereo partly drawn) (natLu complex, metal not drawn) [[Lu]46], for which the IC50 worked out at 4.07 ± 0.52 nM. Then `C[C@@H](O)[C@H](NC(=O)C1CSSCC(NC(=O)C(Cc2ccccc2)NC(=O)CNC(=O)CNC(=O)CNC(=O)C(CC(=O)O)NC(=O)[C@@H](CC(=O)O)NC(=O)C(CNC(=O)CN2CCN(CC(=O)O)CCN(CC(=O)O)CCN(CC(=O)O)CC2)NC(=O)[C@@H](CN)NC(=O)CNC(=O)CNC(=O)C[N+](C)(C)Cc2ccc([Si](F)(C(C)(C)C)C(C)(C)C)cc2)C(=O)N[C@@H](Cc2ccc(O)cc2)C(=O)NC(Cc2c[nH]c3ccccc23)C(=O)N[C@@H](CCCCN)C(=O)N[C@@H]([C@@H](C)O)C(=O)N1)C(=O)O` (stereo partly drawn) (natGa complex, metal not drawn) [[Ga]53], with 3.4 ± 0.18 nM; and `C[C@@H](O)[C@H](NC(=O)C1CSSCC(NC(=O)C(Cc2ccccc2)NC(=O)[C@@H](CC(N)=O)NC(=O)C(CC(N)=O)NC(=O)CNC(=O)C(CC(=O)O)NC(=O)[C@@H](CC(=O)O)NC(=O)C(CNC(=O)CN2CCN(CC(=O)O)CCN(CC(=O)O)CCN(CC(=O)O)CC2)NC(=O)C[N+](C)(C)Cc2ccc([Si](F)(C(C)(C)C)C(C)(C)C)cc2)C(=O)N[C@@H](Cc2ccc(O)cc2)C(=O)NC(Cc2c[nH]c3ccccc23)C(=O)N[C@@H](CCCCN)C(=O)N[C@@H]([C@@H](C)O)C(=O)N1)C(=O)O` (stereo partly drawn) (natLu complex, metal not drawn) [[Lu]49], with 4.47 ± 0.95 nM.

Broadly, the IC50 is the point on the concentration scale where inhibition reaches its midpoint. A higher IC50 goes with lower potency.
